Experimental data taken from ChEMBL document CHEMBL4715821, “Discovery of 4-ethoxy-7H-pyrrolo[2,3-d]pyrimidin-2-amines as potent, selective and orally bioavailable LRRK2 inhibitors” (Bioorg Med Chem Lett, 2018).

How the values were obtained:
[1] = Unbound fraction in Han-Wistar rat brain at 10 mg/kg, po; assay type: ADME, organism-based
[2] = biological target: Mitogen-activated protein kinase kinase kinase 2 (Homo sapiens) (UniProt Q9Y2U5); assay: Inhibition of MEKK2 (unknown origin) assessed as residual activity at 1 uM by Kinomescan method relative to control
[3] = Dose normalized AUC (0 to t) in Han-Wistar rat brain at 10 mg/kg, po measured up to 7 hrs by UPLC-MS/MS analysis; assay type: ADME, organism-based; conditions: in vivo
[4] = biological target: Mitogen-activated protein kinase 3 (Homo sapiens) (UniProt P27361); assay: Inhibition of wild-type human full length ERK1 (M1 to P379 residues) expressed in bacterial expression system assessed as residual activity at 1 uM by Kinomescan method relative to control
[5] = biological target: Tyrosine-protein kinase Blk (Homo sapiens) (UniProt P51451); assay: Inhibition of wild-type human partial length BLK (G211 to L503 residues) expressed in bacterial expression system assessed as residual activity at 1 uM by Kinomescan method relative to control
[6] = biological target: Serine/threonine-protein kinase 16 (Homo sapiens) (UniProt O75716); assay: Inhibition of wild-type human partial length STK16 (G11 to I305 residues) expressed in bacterial expression system assessed as residual activity at 1 uM by Kinomescan method relative to control
[7] = biological target: Ephrin type-A receptor 2 (Homo sapiens) (UniProt P29317); assay: Inhibition of wild type human partial length EPHA2 (T593 to V891 residues) expressed in bacterial expression system assessed as residual activity at 1 uM by Kinomescan method relative to control
[8] = biological target: Mitogen-activated protein kinase kinase kinase 8 (Homo sapiens) (UniProt P41279); assay: Inhibition of COT1 (unknown origin) assessed as residual activity at 1 uM by Kinomescan method relative to control
[9] = biological target: TRAF2 and NCK-interacting protein kinase (Homo sapiens) (UniProt Q9UKE5); assay: Inhibition of wild-type human partial length TNIK (D4 to K311 residues) expressed in bacterial expression system assessed as residual activity at 1 uM by Kinomescan method relative to control
[10] = In vivo inhibition of LRRK2 in Han-Wistar rat assessed as reduction in Ser935 phosphorylation in brain at 10 mg/kg, po by Western blot analysis; assay type: functional; set-up: scale not given: the % may be the effect or the level left
[11] = biological target: Focal adhesion kinase 1 (Homo sapiens) (UniProt Q05397); assay: Inhibition of wild-type human partial length FAK (D402 to R696 residues) expressed in bacterial expression system assessed as residual activity at 1 uM by Kinomescan method relative to control
[12] = biological target: Activated CDC42 kinase 1 (Homo sapiens) (UniProt Q07912); assay: Inhibition of ACK1 (unknown origin) assessed as residual activity at 1 uM relative to control
[13] = biological target: Fibroblast growth factor receptor 1 (Homo sapiens) (UniProt P11362); assay: Inhibition of wild-type human partial length FGFR1 (P357 to V669 residues) expressed in bacterial expression system assessed as residual activity at 1 uM by Kinomescan method relative to control
[14] = biological target: Bone morphogenetic protein receptor type-1A (Homo sapiens) (UniProt P36894); assay: Inhibition of wild-type human partial length BMPR1A (Q214 to I532 residues) expressed in bacterial expression system assessed as residual activity at 1 uM by Kinomescan method relative to control
[15] = biological target: G protein-coupled receptor kinase 4 (Homo sapiens) (UniProt P32298); assay: Inhibition of wild type human full length GRK4 (M1 to C578 residues) expressed in bacterial expression system assessed as residual activity at 1 uM by Kinomescan method relative to control
[16] = biological target: NUAK family SNF1-like kinase 1 (Homo sapiens) (UniProt O60285); assay: Inhibition of wild-type human partial length ARK5 (E25 to I332 residues) expressed in bacterial expression system assessed as residual activity at 1 uM by Kinomescan method relative to control
[17] = biological target: MAP/microtubule affinity-regulating kinase 3 (Homo sapiens) (UniProt P27448); assay: Inhibition of wild-type human full length MARK3 (M1 to L729 residues) expressed in bacterial expression system assessed as residual activity at 1 uM by Kinomescan method relative to control
[18] = biological target: Nuclear receptor subfamily 1 group I member 2 (Homo sapiens, UniProt O75469); assay: Inhibition of human PXR
[19] = biological target: Serine/threonine-protein kinase MRCK beta (Homo sapiens) (UniProt Q9Y5S2); assay: Inhibition of wild-type human partial length MRCKB (L56 to S417 residues) expressed in bacterial expression system assessed as residual activity at 1 uM by Kinomescan method relative to control
[20] = biological target: STE20/SPS1-related proline-alanine-rich protein kinase (Homo sapiens) (UniProt Q9UEW8); assay: Inhibition of wild-type human partial length STK39 (P43 to I357 residues) expressed in mammalian expression system assessed as residual activity at 1 uM by Kinomescan method relative to control
[21] = biological target: Serine/threonine-protein kinase 3 (Homo sapiens) (UniProt Q13188); assay: Inhibition of wild-type human partial length MST2 (D17 to E318 residues) expressed in bacterial expression system assessed as residual activity at 1 uM by Kinomescan method relative to control
[22] = biological target: G protein-coupled receptor kinase 6 (Homo sapiens) (UniProt P43250); assay: Inhibition of GRK6 (unknown origin) assessed as residual activity at 1 uM by Kinomescan method relative to control
[23] = biological target: RAC-alpha serine/threonine-protein kinase (Homo sapiens) (UniProt P31749); assay: Inhibition of wild-type human partial length AKT1 expressed in bacterial expression system assessed as residual activity at 1 uM by Kinomescan method relative to control
[24] = biological target: Proto-oncogene tyrosine-protein kinase ROS (Homo sapiens) (UniProt P08922); assay: Inhibition of wild-type human partial length ROS1 (A1921 to N2240 residues) expressed in bacterial expression system assessed as residual activity at 1 uM by Kinomescan method relative to control
[25] = biological target: Vascular endothelial growth factor receptor 1 (Homo sapiens) (UniProt P17948); assay: Inhibition of wild-type human partial length FLT1 (R781 to F1239 residues) expressed in bacterial expression system assessed as residual activity at 1 uM by Kinomescan method relative to control
[26] = biological target: Serine/threonine-protein kinase 38-like (Homo sapiens) (UniProt Q9Y2H1); assay: Inhibition of wild-type human partial length NDR2 (N34 to E447 residues) expressed in bacterial expression system assessed as residual activity at 1 uM by Kinomescan method relative to control
[27] = biological target: Serine/threonine-protein kinase Nek9 (Homo sapiens) (UniProt Q8TD19); assay: Inhibition of wild-type human partial length NEK9 (P32 to R328 residues) expressed in bacterial expression system assessed as residual activity at 1 uM by Kinomescan method relative to control
[28] = biological target: Insulin receptor-related protein (Homo sapiens) (UniProt P14616); assay: Inhibition of wild-type human partial length INSRR (R950 to E1278 residues) expressed in bacterial expression system assessed as residual activity at 1 uM by Kinomescan method relative to control
Sequence of Insulin receptor-related protein (Homo sapiens) (P14616 27-742 limits assumed): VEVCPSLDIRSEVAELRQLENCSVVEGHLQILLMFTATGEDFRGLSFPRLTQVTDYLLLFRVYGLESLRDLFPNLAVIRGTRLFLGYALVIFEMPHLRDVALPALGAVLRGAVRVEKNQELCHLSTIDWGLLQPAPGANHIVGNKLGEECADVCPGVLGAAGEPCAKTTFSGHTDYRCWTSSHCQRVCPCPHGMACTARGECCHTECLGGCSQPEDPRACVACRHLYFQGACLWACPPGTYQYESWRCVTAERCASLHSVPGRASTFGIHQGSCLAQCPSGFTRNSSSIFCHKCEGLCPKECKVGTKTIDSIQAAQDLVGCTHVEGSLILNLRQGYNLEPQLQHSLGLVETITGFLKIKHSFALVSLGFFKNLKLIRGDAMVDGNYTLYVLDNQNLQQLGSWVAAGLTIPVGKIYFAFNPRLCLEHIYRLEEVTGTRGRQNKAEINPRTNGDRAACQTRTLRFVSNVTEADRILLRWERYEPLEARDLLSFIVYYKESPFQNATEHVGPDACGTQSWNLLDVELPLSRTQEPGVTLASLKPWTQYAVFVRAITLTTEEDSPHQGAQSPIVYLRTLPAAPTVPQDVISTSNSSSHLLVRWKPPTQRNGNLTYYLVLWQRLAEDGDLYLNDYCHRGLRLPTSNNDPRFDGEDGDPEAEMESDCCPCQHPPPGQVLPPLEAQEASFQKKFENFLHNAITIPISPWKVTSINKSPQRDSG
Sequence of Insulin receptor-related protein (Homo sapiens) (P14616 747-1297 limits assumed): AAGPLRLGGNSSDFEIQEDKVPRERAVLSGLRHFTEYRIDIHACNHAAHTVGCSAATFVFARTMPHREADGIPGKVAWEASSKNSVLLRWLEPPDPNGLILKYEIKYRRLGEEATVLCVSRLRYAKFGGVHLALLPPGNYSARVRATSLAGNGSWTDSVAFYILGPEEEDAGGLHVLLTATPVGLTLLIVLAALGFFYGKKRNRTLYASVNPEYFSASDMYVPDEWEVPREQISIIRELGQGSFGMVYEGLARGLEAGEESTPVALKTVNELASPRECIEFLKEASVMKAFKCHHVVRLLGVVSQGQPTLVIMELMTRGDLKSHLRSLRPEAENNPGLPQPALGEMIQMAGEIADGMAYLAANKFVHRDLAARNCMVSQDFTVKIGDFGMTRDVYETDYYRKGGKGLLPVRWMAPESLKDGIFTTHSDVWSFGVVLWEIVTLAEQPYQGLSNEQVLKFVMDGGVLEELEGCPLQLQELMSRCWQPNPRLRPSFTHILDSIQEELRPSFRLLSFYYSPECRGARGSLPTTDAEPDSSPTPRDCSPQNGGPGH

Sequence of Mitogen-activated protein kinase kinase kinase 8 (Homo sapiens) (P41279 whole entry, the tested form may be a part): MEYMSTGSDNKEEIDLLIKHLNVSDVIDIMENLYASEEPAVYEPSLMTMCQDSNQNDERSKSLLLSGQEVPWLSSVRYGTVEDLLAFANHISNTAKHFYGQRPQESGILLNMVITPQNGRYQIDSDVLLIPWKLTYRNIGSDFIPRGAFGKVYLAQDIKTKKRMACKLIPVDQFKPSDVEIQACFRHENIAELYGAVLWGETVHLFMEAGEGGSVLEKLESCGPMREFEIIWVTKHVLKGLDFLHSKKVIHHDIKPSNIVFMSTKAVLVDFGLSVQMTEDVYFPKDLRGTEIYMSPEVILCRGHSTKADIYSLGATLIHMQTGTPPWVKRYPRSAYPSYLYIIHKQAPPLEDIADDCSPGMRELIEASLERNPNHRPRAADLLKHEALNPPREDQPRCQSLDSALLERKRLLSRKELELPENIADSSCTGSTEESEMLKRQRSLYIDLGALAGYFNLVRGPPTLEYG
Sequence of Serine/threonine-protein kinase 38-like (Homo sapiens) (Q9Y2H1 2-464 limits assumed): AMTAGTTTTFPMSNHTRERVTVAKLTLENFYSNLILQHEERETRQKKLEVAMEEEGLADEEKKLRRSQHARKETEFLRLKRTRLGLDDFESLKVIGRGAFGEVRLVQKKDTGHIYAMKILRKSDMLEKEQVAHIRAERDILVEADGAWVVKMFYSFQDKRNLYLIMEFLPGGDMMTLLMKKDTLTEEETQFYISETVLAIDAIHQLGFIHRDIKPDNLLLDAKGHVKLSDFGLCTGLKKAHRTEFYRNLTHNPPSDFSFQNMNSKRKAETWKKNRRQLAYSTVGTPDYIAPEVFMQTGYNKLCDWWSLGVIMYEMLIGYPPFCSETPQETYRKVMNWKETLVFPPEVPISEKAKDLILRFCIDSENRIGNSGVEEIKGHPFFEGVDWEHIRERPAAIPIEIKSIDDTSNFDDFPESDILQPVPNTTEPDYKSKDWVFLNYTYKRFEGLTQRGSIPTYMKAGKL
Sequence of TRAF2 and NCK-interacting protein kinase (Homo sapiens) (Q9UKE5 whole entry, looked up, the tested form may be a part): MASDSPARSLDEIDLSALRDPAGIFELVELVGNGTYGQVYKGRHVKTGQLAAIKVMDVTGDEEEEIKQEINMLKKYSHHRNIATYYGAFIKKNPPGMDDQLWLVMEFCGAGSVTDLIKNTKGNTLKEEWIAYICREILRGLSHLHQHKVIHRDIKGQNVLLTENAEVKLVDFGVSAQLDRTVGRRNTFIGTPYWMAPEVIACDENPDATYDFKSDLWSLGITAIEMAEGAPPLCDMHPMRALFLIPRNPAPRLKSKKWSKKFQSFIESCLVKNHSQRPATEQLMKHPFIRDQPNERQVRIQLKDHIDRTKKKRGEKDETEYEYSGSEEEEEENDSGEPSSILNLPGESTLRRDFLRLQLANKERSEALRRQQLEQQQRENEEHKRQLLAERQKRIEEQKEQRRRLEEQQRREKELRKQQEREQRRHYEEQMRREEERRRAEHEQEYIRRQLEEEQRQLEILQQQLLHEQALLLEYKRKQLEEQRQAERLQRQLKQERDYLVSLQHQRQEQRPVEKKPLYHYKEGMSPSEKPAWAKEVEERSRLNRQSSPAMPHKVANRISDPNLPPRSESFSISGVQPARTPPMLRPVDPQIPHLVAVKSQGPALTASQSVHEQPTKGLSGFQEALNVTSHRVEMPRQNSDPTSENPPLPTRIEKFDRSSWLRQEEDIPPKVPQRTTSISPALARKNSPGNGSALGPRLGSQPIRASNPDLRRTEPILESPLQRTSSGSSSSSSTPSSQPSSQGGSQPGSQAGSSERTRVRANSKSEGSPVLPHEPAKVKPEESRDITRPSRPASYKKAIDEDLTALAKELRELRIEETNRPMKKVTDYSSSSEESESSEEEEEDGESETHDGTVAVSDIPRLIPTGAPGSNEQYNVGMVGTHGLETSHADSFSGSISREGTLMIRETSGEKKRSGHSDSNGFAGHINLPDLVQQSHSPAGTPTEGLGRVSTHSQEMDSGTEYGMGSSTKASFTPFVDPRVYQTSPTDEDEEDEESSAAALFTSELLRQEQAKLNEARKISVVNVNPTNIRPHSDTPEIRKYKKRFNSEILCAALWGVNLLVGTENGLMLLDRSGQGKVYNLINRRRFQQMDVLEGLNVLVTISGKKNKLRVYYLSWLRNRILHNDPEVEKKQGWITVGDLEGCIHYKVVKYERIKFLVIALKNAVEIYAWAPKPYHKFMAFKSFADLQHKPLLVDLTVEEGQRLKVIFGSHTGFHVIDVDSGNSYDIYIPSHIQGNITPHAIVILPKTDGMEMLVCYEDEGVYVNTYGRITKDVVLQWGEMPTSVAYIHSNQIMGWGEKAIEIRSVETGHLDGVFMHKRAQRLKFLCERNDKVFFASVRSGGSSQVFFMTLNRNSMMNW
Sequence of Tyrosine-protein kinase Blk (Homo sapiens) (P51451 2-505 limits assumed): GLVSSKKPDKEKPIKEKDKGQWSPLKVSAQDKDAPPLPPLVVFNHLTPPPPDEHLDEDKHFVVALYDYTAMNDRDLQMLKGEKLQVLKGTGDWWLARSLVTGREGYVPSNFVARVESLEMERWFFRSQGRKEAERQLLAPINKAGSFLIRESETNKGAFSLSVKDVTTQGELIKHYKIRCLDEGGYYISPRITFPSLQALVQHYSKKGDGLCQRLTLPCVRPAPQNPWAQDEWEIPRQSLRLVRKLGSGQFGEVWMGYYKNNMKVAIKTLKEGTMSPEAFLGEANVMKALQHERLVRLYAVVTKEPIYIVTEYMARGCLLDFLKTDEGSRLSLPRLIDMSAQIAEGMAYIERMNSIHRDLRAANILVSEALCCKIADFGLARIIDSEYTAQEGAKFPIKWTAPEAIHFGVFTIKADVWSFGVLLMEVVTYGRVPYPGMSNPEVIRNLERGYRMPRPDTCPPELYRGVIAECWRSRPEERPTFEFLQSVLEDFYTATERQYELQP
Sequence of G protein-coupled receptor kinase 4 (Homo sapiens) (P32298 whole entry, looked up, the tested form may be a part): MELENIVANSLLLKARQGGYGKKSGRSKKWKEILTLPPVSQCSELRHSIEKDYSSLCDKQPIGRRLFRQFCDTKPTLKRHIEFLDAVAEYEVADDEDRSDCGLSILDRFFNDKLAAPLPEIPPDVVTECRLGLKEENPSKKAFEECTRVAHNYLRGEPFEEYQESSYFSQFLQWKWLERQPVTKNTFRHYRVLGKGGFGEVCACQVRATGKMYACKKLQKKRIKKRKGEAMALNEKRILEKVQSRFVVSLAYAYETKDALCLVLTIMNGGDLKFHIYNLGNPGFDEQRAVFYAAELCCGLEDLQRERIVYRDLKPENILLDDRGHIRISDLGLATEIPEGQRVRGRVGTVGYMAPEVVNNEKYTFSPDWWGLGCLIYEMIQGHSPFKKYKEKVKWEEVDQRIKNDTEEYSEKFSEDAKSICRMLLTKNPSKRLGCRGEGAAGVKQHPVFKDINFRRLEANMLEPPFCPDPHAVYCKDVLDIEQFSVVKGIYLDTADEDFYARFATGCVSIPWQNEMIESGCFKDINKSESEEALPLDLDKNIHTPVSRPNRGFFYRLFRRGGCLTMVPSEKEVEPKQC
Sequence of Serine/threonine-protein kinase 16 (Homo sapiens) (O75716 whole entry, the tested form may be a part): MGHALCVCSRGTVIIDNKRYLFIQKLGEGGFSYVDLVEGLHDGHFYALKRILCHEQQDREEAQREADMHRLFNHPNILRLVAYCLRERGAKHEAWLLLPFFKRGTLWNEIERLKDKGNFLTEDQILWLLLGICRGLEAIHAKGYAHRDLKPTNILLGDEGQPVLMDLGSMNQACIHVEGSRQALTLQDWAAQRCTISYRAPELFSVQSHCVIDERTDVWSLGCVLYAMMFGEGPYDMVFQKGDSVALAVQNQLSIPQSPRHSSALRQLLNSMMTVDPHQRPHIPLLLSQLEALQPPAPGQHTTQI

Molecule CCOc1nc(Nc2ccc(C(=O)N3CCOCC3)cc2OC)nc2[nH]ccc12 has a fraction unbound [1] of 0.01, an Activity [2] of 99.3% and an AUCt/dose [3] of 252 ng·h/g/mg/kg. For the same molecule, the Activity [4] was 95.7%, the Activity [5] was 114% and the Activity [6] was 98.7%. The Activity [7] was 106%, the Activity [8] was 101% and the Activity [9] was 98.4%. The Activity [10] was 20%, the Activity [11] was 39.5% and the Activity [12] was 27.9%. The Activity [13] was 90.7%, the Activity [14] was 94% and the Activity [15] was 84.6%. For the same molecule, the Activity [16] was 47.6%, the Activity [17] was 92.4% and the EC50 [18] was > 50.1 µM. The Activity [19] was 98%, the Activity [20] was 97.5% and the Activity [21] was 99.3%. The Activity [22] was 95.6%, the Activity [23] was 104% and the Activity [24] was 52.5%. The Activity [25] was 97.5%, the Activity [26] was 96.8% and the Activity [27] was 100%. For the same molecule, the Activity [28] was 2.52%.
